Source: patent US20140193827A1 (TEVA PHARMACEUTICAL INDUSTRIES, LTD., priority 2013, published 2014)

Experiments:
[1] = tested on: GA-primed murine splenocytes; assay: Microarray gene expression profiling of GA-primed splenocytes reactivated ex vivo (t-test / 1-way ANOVA vs. Medium or GA-RS); assay type: cell-based, mouse
From the text: All experimental procedures conformed to accepted ethical standards for use of animals in research and were in accordance with Committee for the Care and Use of Experimental Animals guidelines and approved by the Teva Institutional Animal Care and Use Committee. For these experiments, we purchased 8- to 12-week old female (Balb/c×SJL)F1 mice (Harlan, Israel). […] Single cell suspension was prepared. […] Splenocytes (125 μL 10×10^6 SPL cell/mL suspension) were added to the activator solutions and incubated for 24 hours at 37° C. Then, cells were washed, diluted with RNA stabilization solution (RNAlater® solution, Applied Biosystems), and stored at 4° C. […] RNA quality was assessed by the absorbance ratio at 260/280 on and gel electrophoresis (Experion™, Bio-Rad, Hercules, Calif.). […] Microarray hybridization, array scanning, and initial preprocessing were performed by BioRap (Technion, Haifa, Israel). […] The subsequent bioinformatics analyses were conducted in the Bioinformatics Core Facility of the National Institute for Biotechnology in the Negev, Ltd. (NIBN, Beer-Sheva, Israel). Summarization of bead-level data to gene-level signals was performed using the R package “beadarray” (45) after removal of outliers greater than 3 median absolute deviations (MADs). Between-sample quantile normalization was performed using Partek Genomics Suite (Partek, Inc., St. Louis, Missouri), followed by correction of experimental batch effects (i.e., related to differences in dates of RNA extraction and array processing) using the Partek Batch Remover™ tool. […] Fold change values were presented in linear scale. […] RNA was extracted and full gene expression analysis was preformed.

[2] = tested on: GA-primed murine splenocytes; assay: Functional gene expression analysis (Ingenuity Pathways Analysis: biological functions, canonical pathways); parameters: species or system mouse; details: vs. Medium
Description: To identify the leading biological mechanisms associated with genes induced in splenocytes by glatiramoids, gene functional annotation, enrichment, and pathway analyses were performed by Ingenuity Pathways Analysis (IPA) Suite (www.ingenuity.com). The program integrates data from various experimental platforms and primary literature sources to provide insight into molecular interactions, cellular phenotypes, and disease processes, and then predicts downstream biological effects of gene transcription changes. IPA web software was also used to reconstruct regulatory genes and transcriptional factors functional networks. A significance score (using the right-tailed Fisher's exact test and expressed as a p value) for each process is calculated as the number of gene transcripts that participate in a network or pathway relative to the total number of these genes in all functional/pathway annotations stored in the IPA database. All p values were applied for multiple testing corrections using Benjamini-Hochberg FDR method with a cut off at p =0.05.

[3] = tested on: GA-primed murine splenocytes; assay: Differentially expressed genes GA vs PG by multiple parametric tests (ANOVA, LIMMA with background subtraction, comparative marker selection SNR and t-test); assay type: cell-based, mouse
Description: The experimental design, data collection, and pre-processing steps have been previously described. […] After 3 days the mice were sacrificed, their splenocytes were isolated, and these splenocytes were mixed with activator solutions for 24 hours. […] Then the RNA was extracted and gene expression characterized by microarray using an Illumine WG-6_V2 chip. Illumina's BeadStudio software was utilized for image processing, quantification of signal intensity per bead, and background signal correction. The microarray data have been deposited in the Gene Expression Omnibus, under accession number GSE40566.
We then corrected for batch variation with ComBat (30) as implemented in the SVA package of R (62). Each microarray's chip designation was supplied a batch label; there were 18 batches in all. The labels for the treatments (i.e. drug product, reference standard . . . ) were added as covariates.
First, we computed the statistical significance of differential expression between treatments using the Analysis of Variance (ANOVA) method for each probe (65), adjusting for multiple hypothesis testing using the Benjamini-Hochberg False Discovery Rate (FDR) correction (66). […] The coefficients for the linear model were tested for significance using a modified t-test (taking into account standard deviation) and the p-values for each probe were adjusted using FDR. […] We applied two separate techniques within this framework; a traditional T-test and a Signal-to-Noise Ratio test (SNR). For each of these two tests, we adjusted the nominal p-values via FDR. For all four tests described, we used an adjusted threshold that was less than or equal to 0.05.

[4] = tested on: GA-primed murine splenocytes

glatiramer acetate [GA]
genes up- or down-regulated compared to medium ([1]; FDR-adjusted p value <0.05, fold change of 1.3 or more): 1474 genes
FOXP3 expression ([1]; vs. Medium): over-expressed
Fold Change CD40 ([1]; vs. Medium): 1.533
Fold Change CD86 ([1]; vs. Medium): 1.365
Fold Change FOXP3 ([1]; vs. Medium): 1.406
Fold Change GATA3 ([1]; vs. Medium): 1.877
Fold Change HLA-DMA ([1]; vs. Medium): 1.534
Fold Change HLA-DMB ([1]; vs. Medium): 1.398
Fold Change ICOS ([1]; vs. Medium): 2.164
Fold Change IFNG ([1]; vs. Medium): 16.847
Fold Change IFNGR2 ([1]; vs. Medium): −1.333
Fold Change IL2 ([1]; vs. Medium): 2.074
Fold Change IL2RA ([1]; vs. Medium): 2.457
Fold Change IL2RG ([1]; vs. Medium): −1.386
Fold Change IL4 ([1]; vs. Medium): 4.428
Fold Change IL4R ([1]; vs. Medium): 1.578
Fold Change IL6R ([1]; vs. Medium): −1.545
Fold Change IL10RB ([1]; vs. Medium): −1.323
Fold Change IL12RB1 ([1]; vs. Medium): 2.270
Fold Change IL13 ([1]; vs. Medium): 1.330
Fold Change IL17A ([1]; vs. Medium): 1.451
Fold Change IL17F ([1]; vs. Medium): 2.365
Fold Change IL18 ([1]; vs. Medium): −1.383
Fold Change IL18R1 ([1]; vs. Medium): −1.726
Fold Change TBX21 ([1]; vs. Medium): 2.654
Fold Change TGFBR2 ([1]; vs. Medium): −1.436
Fold Change TNF ([1]; vs. Medium): 1.475
Response, Activation of T lymphocytes [2]: Upregulated
Response, Activation of antigen presenting cells [2]: Upregulated
Response, Activation of lymphocytes [2]: Upregulated
Response, Activation of mononuclear leukocytes [2]: Upregulated
Response, Activation of phagocytes [2]: Upregulated
Response, Development of hematopoietic progenitor cells [2]: Down-regulated
Response, Differentiation of effector T lymphocytes [2]: Upregulated
Response, Differentiation of naive lymphocytes [2]: No change
Response, Expansion of lymphocytes [2]: No change
Response, Expansion of mononuclear leukocytes [2]: No change
Response, Immune response of antigen presenting cells [2]: Upregulated
Response, Proliferation of B lymphocytes [2]: Upregulated
Response, Proliferation of T lymphocytes [2]: No change
Response, Proliferation of hematopoietic cell lines [2]: Upregulated
Response, Proliferation of immune cells [2]: Upregulated
Response, Proliferation of lymphocytes [2]: Upregulated
Response, Quantity of cytotoxic T cells [2]: Down-regulated
Response, Stimulation of antigen presenting cells [2]: Upregulated
Response, Stimulation of macrophages [2]: Upregulated
Response, Suppression of T lymphocytes [2]: Upregulated
FOXP3 expression, GA vs PG [3]: significantly higher expression
GPR83 expression, GA vs PG [3]: significantly higher levels of expression
IFNG expression, GA compared to PG ([3]; probes ranked #1 and #3 by fold change): upregulated dramatically
AVG expression CYP2S1 [4]: 6.418
